Results on 6 compounds are retold here after PubChem BioAssay AID2060329 (Molecular Pharmacology Branch, DTP, NCI, 2025).

Structures are written as SMILES. Values joined by “and” are separate entries in the source; they are usually repeats but may differ in a detail not shown here. Equal values may be shown once.

This experiment relates to MCF7 multi-cell spheroids with HUVEC/MSC, viability. Kind of experiment: Anticancer human tumor MCF7 cell line growth inhibition [IpAb].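 For all read-outs here: spheroids exposed to agents for seven days before readout.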 Conditions: for viability, T/C: stronger effect = lower value. Summed up:
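Multi-cell spheroids of 60% tumour cells, 25% HUVEC and 15% MSC in ultra-low-attachment U-bottom wells, treated with agents combined with ipatasertib or abemaciclib. Half-log ranges top out near clinical Cmax, or 10 microM when Cmax is unknown.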

Setting [1] is: curve of first compound, second compound 0.1 µM.
Where [2] appears, read: curve of first compound, second compound 0.316 µM.
Where [3] appears, read: curve of first compound, second compound 1 µM.
The mark [4] stands for this setting: curve of first compound, second compound 3.16 µM.
Setting [5] is: curve of first compound, second compound 10 µM.
Setting [6] is: second compound 0.1 µM, first compound 0.0316 µM.
The mark [7] stands for this setting: second compound 0.1 µM, first compound 0.1 µM.
Setting [8] is: second compound 0.1 µM, first compound 0.316 µM.
Setting [9] is: second compound 0.1 µM, first compound 1 µM.
Where [10] appears, read: second compound 0.1 µM, first compound 3.16 µM.
Where [11] appears, read: second compound 0.1 µM, first compound 10 µM.
Where [12] appears, read: second compound 0.316 µM, first compound 0.0316 µM.
[13] abbreviates: second compound 0.316 µM, first compound 0.1 µM.
Where [14] appears, read: second compound 0.316 µM, first compound 0.316 µM.
Setting [15] is: second compound 0.316 µM, first compound 1 µM.
Setting [16] is: second compound 0.316 µM, first compound 3.16 µM.
Setting [17] is: second compound 0.316 µM, first compound 10 µM.
Setting [18] is: second compound 1 µM, first compound 0.0316 µM.
Setting [19] is: second compound 1 µM, first compound 0.1 µM.
The mark [20] stands for this setting: second compound 1 µM, first compound 0.316 µM.
The mark [21] stands for this setting: second compound 1 µM, first compound 1 µM.
[22] abbreviates: second compound 1 µM, first compound 3.16 µM.
Where [23] appears, read: second compound 1 µM, first compound 10 µM.

The term viability, T/C denotes the ratio of treated to control. The term IC50 denotes the midpoint of a concentration-inhibition curve. Take `C=CCn1c(=O)c2cnc(Nc3ccc(N4CCN(C)CC4)cc3)nc2n1-c1cccc(C(C)(C)O)n1`: the viability, T/C is 104% and 99.2% (compound 0.0316 µM); 98.9% and 108% (compound 0.1 µM); 58.2% and 76.1% (compound 0.316 µM); 34% and 44.2% (compound 1 µM); 28.5% and 29.7% (compound 3.16 µM); 28.2% and 33.6% (compound 10 µM). The concentration for half-maximal inhibition (IC50) (curve of compound) was 463 nM and 765 nM.
As to `CC(=O)c1c(C)c2cnc(Nc3ccc(N4CCNCC4)cn3)nc2n(C2CCCC2)c1=O` + CC(C)NCC(C(=O)N1CCN(c2ncnc3c2C(C)CC3O)CC1)c1ccc(Cl)cc1, the IC50 was greater than 300 nM under setting [1]; greater than 300 nM under setting [2]; 275 nM under setting [3]; 23.6 nM under setting [4]; less than 0.949 nM under setting [5]. Moreover, the viability, T/C was 96.3% (second compound 0.1 µM, first compound 0.000949 µM); 100% (second compound 0.1 µM, first compound 0.003 µM); 97.1% (second compound 0.1 µM, first compound 0.00949 µM); 90.7% (second compound 0.1 µM, first compound 0.03 µM); 89.6% (second compound 0.1 µM, first compound 0.0949 µM); 86.8% (second compound 0.1 µM, first compound 0.3 µM). The viability, T/C runs as follows: (second compound 0.316 µM, first compound 0.000949 µM) 80.9%; (second compound 0.316 µM, first compound 0.003 µM) 82.7%; (second compound 0.316 µM, first compound 0.00949 µM) 87.9%; (second compound 0.316 µM, first compound 0.03 µM) 81.8%; (second compound 0.316 µM, first compound 0.0949 µM) 77.1%; (second compound 0.316 µM, first compound 0.3 µM) 73.9%. Further, the viability, T/C by setting is: (second compound 1 µM, first compound 0.000949 µM) 67.4%; (second compound 1 µM, first compound 0.003 µM) 71.4%; (second compound 1 µM, first compound 0.00949 µM) 63.1%; (second compound 1 µM, first compound 0.03 µM) 62.4%; (second compound 1 µM, first compound 0.0949 µM) 55.5%; (second compound 1 µM, first compound 0.3 µM) 49.9%. In addition, the viability, T/C is 45.1% (second compound 3.16 µM, first compound 0.000949 µM); 57.4% (second compound 3.16 µM, first compound 0.003 µM); 52.2% (second compound 3.16 µM, first compound 0.00949 µM); 48.2% (second compound 3.16 µM, first compound 0.03 µM); 46.9% (second compound 3.16 µM, first compound 0.0949 µM); 39.4% (second compound 3.16 µM, first compound 0.3 µM). For the same compound, the viability, T/C runs as follows: (second compound 10 µM, first compound 0.000949 µM) 41.6%; (second compound 10 µM, first compound 0.003 µM) 42.7%; (second compound 10 µM, first compound 0.00949 µM) 36.9%; (second compound 10 µM, first compound 0.03 µM) 34%; (second compound 10 µM, first compound 0.0949 µM) 34.5%; (second compound 10 µM, first compound 0.3 µM) 23.2%.
`CC1(C)CCC(CN2CCN(c3ccc(C(=O)NS(=O)(=O)c4ccc(NCC5CCOCC5)c([N+](=O)[O-])c4)c(Oc4cnc5[nH]ccc5c4)c3)CC2)=C(c2ccc(Cl)cc2)C1` + CCN1CCN(Cc2ccc(Nc3ncc(F)c(-c4cc(F)c5nc(C)n(C(C)C)c5c4)n3)nc2)CC1: the half-inhibitory concentration (IC50) runs as follows: (curve of first compound, second compound 0.01 µM) 7020 nM; (curve of first compound, second compound 0.0316 µM) 7010 nM; under setting [1], 6630 nM; under setting [2], 6290 nM; under setting [3], 5390 nM. The viability, T/C by setting is: (second compound 0.01 µM, first compound 0.0316 µM) 107%; (second compound 0.01 µM, first compound 0.1 µM) 93.2%; (second compound 0.01 µM, first compound 0.316 µM) 109%; (second compound 0.01 µM, first compound 1 µM) 96.8%; (second compound 0.01 µM, first compound 3.16 µM) 111%; (second compound 0.01 µM, first compound 10 µM) 26.4%. Moreover, the viability, T/C is 97.8% (second compound 0.0316 µM, first compound 0.0316 µM); 94.8% (second compound 0.0316 µM, first compound 0.1 µM); 94.9% (second compound 0.0316 µM, first compound 0.316 µM); 91.5% (second compound 0.0316 µM, first compound 1 µM); 104% (second compound 0.0316 µM, first compound 3.16 µM); 29.2% (second compound 0.0316 µM, first compound 10 µM). Besides, the viability, T/C is, setting by setting: under setting [6], 107%; under setting [7], 118%; under setting [8], 102%; under setting [9], 106%; under setting [10], 104%; under setting [11], 20.1%. For the same compound, the viability, T/C under setting [12] is 99.5%; the viability, T/C under setting [13] is 117%; the viability, T/C under setting [14] was 116%; the viability, T/C under setting [15] was 104%; the viability, T/C under setting [16] is 98.6%; the viability, T/C under setting [17] is 17%. Further, the viability, T/C under setting [18] was 105%; the viability, T/C under setting [19] was 107%; the viability, T/C under setting [20] is 101%; the viability, T/C under setting [21] is 92.7%; the viability, T/C under setting [22] is 87.7%; the viability, T/C under setting [23] was 9.36%.
For the compound `CC1(C)CCC(CN2CCN(c3ccc(C(=O)NS(=O)(=O)c4ccc(NCC5CCOCC5)c([N+](=O)[O-])c4)c(Oc4cnc5[nH]ccc5c4)c3)CC2)=C(c2ccc(Cl)cc2)C1` + CC(C)NCC(C(=O)N1CCN(c2ncnc3c2C(C)CC3O)CC1)c1ccc(Cl)cc1, the half-maximal inhibitory concentration (IC50) was 6000 nM under setting [1]; 4520 nM under setting [2]; 2510 nM under setting [3]; 33.7 nM under setting [4]; less than 31.6 nM under setting [5]. Further, the viability, T/C under setting [6] is 85%; the viability, T/C under setting [7] is 83.3%; the viability, T/C under setting [8] was 87.6%; the viability, T/C under setting [9] is 84.2%; the viability, T/C under setting [10] is 84.9%; the viability, T/C under setting [11] is 22.2%. The viability, T/C was 72.4% under setting [12]; 74.9% under setting [13]; 69.5% under setting [14]; 72.1% under setting [15]; 67.3% under setting [16]; 11.3% under setting [17]. Also, the viability, T/C was 69.4% under setting [18]; 64.9% under setting [19]; 70.1% under setting [20]; 56.1% under setting [21]; 49.5% under setting [22]; 10.9% under setting [23]. Besides, the viability, T/C was 47.9% (second compound 3.16 µM, first compound 0.0316 µM); 51.6% (second compound 3.16 µM, first compound 0.1 µM); 51.3% (second compound 3.16 µM, first compound 0.316 µM); 39.7% (second compound 3.16 µM, first compound 1 µM); 34.1% (second compound 3.16 µM, first compound 3.16 µM); 9.03% (second compound 3.16 µM, first compound 10 µM). The viability, T/C is, setting by setting: (second compound 10 µM, first compound 0.0316 µM) 39.3%; (second compound 10 µM, first compound 0.1 µM) 34.5%; (second compound 10 µM, first compound 0.316 µM) 32.1%; (second compound 10 µM, first compound 1 µM) 27.8%; (second compound 10 µM, first compound 3.16 µM) 29.7%; (second compound 10 µM, first compound 10 µM) 5.76%.
For `C=CC(=O)N1CCN(c2nc(=O)n(-c3c(C)ccnc3C(C)C)c3nc(-c4c(O)cccc4F)c(F)cc23)C(C)C1` (stereo unspecified), the viability, T/C (compound 0.0316 µM) is 98.6% and 117%; the viability, T/C (compound 0.1 µM) is 106%; the viability, T/C (compound 0.316 µM) was 102% and 121%; the viability, T/C (compound 1 µM) is 103% and 107%; the viability, T/C (compound 3.16 µM) is 107% and 83.4%; the viability, T/C (compound 10 µM) is 71.2% and 76.7%. Under “curve of compound”, the 50% inhibitory concentration (IC50) was greater than 10000 nM.
As to `CC(=O)c1c(C)c2cnc(Nc3ccc(N4CCNCC4)cn3)nc2n(C2CCCC2)c1=O`, the viability, T/C by setting is: (compound 0.000949 µM) 119% and 97.4%; (compound 0.003 µM) 101% and 97.1%; (compound 0.00949 µM) 95.5% and 95.7%; (compound 0.03 µM) 96.1% and 115%; (compound 0.0949 µM) 109% and 95.9%; (compound 0.3 µM) 89.2% and 104%. Further, the IC50 (curve of compound) is greater than 300 nM.
